Key:
[1] = test system: patients with unresectable advanced or metastatic renal cell carcinoma (RCC); assay: Same Phase 2 trial: PFS and ORR by retrospective independent blinded review of scans; assay type: in vivo, human; conditions: combo 18 mg+5 mg; everolimus 10 mg
[2] = test system: patients with unresectable advanced or metastatic renal cell carcinoma (RCC); assay: Phase 2 trial in RCC after one prior VEGF-targeted treatment: efficacy (PFS, OS, ORR), investigator assessment, RECIST 1.1; LENVIMA 18 mg+everolimus 5 mg vs LENVIMA 24 mg vs everolimus 10 mg; conditions: combo 18 mg+5 mg
Method: A multicenter, randomized, open-label, trial was conducted to determine the safety and efficacy of lenvatinib administered alone or in combination with everolimus in subjects with unresectable advanced or metastatic renal cell carcinoma (RCC). The trial consisted of a Phase 1b dose finding and a Phase 2 portion. The Phase 2 portion enrolled a total of 153 patients with unresectable advanced or metastatic RCC following one prior VEGF-targeted treatment. Patients were required, inter alia, to have histological confirmation of predominant clear cell RCC, radiographic evidence of disease progression according to Response Evaluation Criteria in Solid Tumors Version 1.1 (RECIST), one prior VEGF-targeted therapy, and Eastern Cooperative Oncology Group (ECOG) Performance Status of 0 or 1.
Patients were randomly allocated to one of 3 arms: (i) LENVIMA® (mesylate salt of lenvatinib) 18 mg+everolimus 5 mg, (ii) LENVIMA® 24 mg, or (iii) everolimus 10 mg, using a 1:1:1 ratio. Patients were stratified by hemoglobin level (≤13 g/dL vs. >13 g/dL for males and ≤11.5 g/dL vs >11.5 g/dL for females) and corrected serum calcium (≥10 mg/dL vs. <10 mg/dL).
The primary efficacy outcome measure, based on investigator assessed tumor response, was progression-free survival (PFS) of the LENVIMA® plus everolimus arm vs. the everolimus arm and of the LENVIMA® arm vs. the everolimus arm. Other efficacy outcome measures included investigator-assessed overall survival (OS) and objective response rate (ORR).
Tumor assessments were evaluated according to RECIST.

[3] = test system: patients with unresectable advanced or metastatic renal cell carcinoma (RCC); assay: Same Phase 2 trial: laboratory abnormalities, Grade 3-4; assay type: in vivo, human; conditions: combo (head prints 10 mg+5 mg), LENVIMA 24 mg, everolimus 10 mg
Text: Table 4 provides a summary of laboratory abnormalities observed in the patients in the RCC trial described in Example 1.

[4] = test system: patients with unresectable advanced or metastatic renal cell carcinoma (RCC); assay: Same Phase 2 trial: adverse reactions (CTCAE grades), once daily dosing;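 further: adverse events are any unwanted sign, symptom, abnormal lab finding or disease occurring in time with treatment, whether or not drug-related, and CTCAE grade expresses their severity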
Method: The CTCAE provides a grading (severity) scale for each adverse event term. […] The CTCAE grade refers to the severity of the AE.
The safety data described below are derived from the trial described in Example 1, which randomized (1:1:1) patients with unresectable advanced or metastatic renal cell carcinoma (RCC) to LENVIMA® 18 mg+everolimus 5 mg (n=51), LENVIMA® 24 mg (n=52), or everolimus 10 mg (n=50) once daily.

[5] = cited from earlier work
[6] = test system: rabbits; conditions: rabbit, in vivo, po; cited from earlier work
[7] = test system: rats; conditions: rat, in vivo, po; cited from earlier work
[8] = everolimus 10 mg, cutoff Jul. 31, 2015
[9] = everolimus 10 mg, cutoff Jun. 13, 2014
[10] = LENVIMA 24 mg, everolimus 10 mg
[11] = combo 18 mg+5 mg, LENVIMA 24 mg, everolimus 10 mg
[12] = combo 18 mg+5 mg, LENVIMA 24 mg

CO[C@H]1C[C@@H]2CC[C@@H](C)[C@@](O)(O2)C(=O)C(=O)N2CCCC[C@H]2C(=O)O[C@H]([C@H](C)C[C@@H]2CC[C@@H](OCCO)[C@H](OC)C2)CC(=O)[C@H](C)/C=C(\C)[C@@H](O)[C@@H](OC)C(=O)[C@H](C)C[C@H](C)/C=C/C=C/C=C/1C [Everolimus, (1R,9S,12S,15R,16E,18R,19R,21R,23 S,24E,26E,28E,30S,32S,35R)-1,18-dihydroxy-12-{(1R)-2-[(1 S,3R,4R)-4-(2-hydroxyethoxy)-3-methoxycyclohexyl]-1-methylethyl}-19,30-dimethoxy-15,17,21,23,29,35-hexamethyl-11,36-dioxa-4-aza-tricyclo[30.3.1.0^4,9]hexatriaconta-16,24,26,28-tetraene-2,3,10,14,20-pentaone]
ORR, independent blinded review [1]: no subject had an objective response | Number of complete responses (%) ([2]; everolimus 10 mg): 0 n (%) | Number of partial responses (%) ([2]; everolimus 10 mg): 3 (6) n (%) | Number of progressive disease (%) ([2]; everolimus 10 mg): 12 (24) n (%) | Number of stable disease (%) ([2]; everolimus 10 mg): 31 (62) n (%) | Overall Survival (updated analysis): Number of deaths, n (%) [2, 8]: 37 (74) n (%) | Overall Survival: Number of deaths (%) [2, 9]: 26 (52) n (%) | Alkaline phosphatase increased, Grades 3-4 [3]: 0% | Aspartate aminotransferase (AST) increased, Grades 3-4 [3]: 0% | Hemoglobin decreased, Grades 3-4 [3]: 16% | Hyperglycemia, Grades 3-4 [3]: 16% | Hyperkalemia, Grades 3-4 [3]: 2% | Hypocalcemia, Grades 3-4 [3]: 2% | Hypokalemia, Grades 3-4 [3]: 2% | Hyponatremia, Grades 3-4 [3]: 6% | Hypophosphatemia, Grades 3-4 [3]: 6% | Lipase increased, Grades 3-4 [3]: 12% | Lymphocyte count decreased, Grades 3-4 [3]: 20% | Platelet count decreased, Grades 3-4 [3]: 0% | Aspartate aminotransferase (AST) increased, Grades 3-4 ([3]; listed as everolimus): no patients | arterial thromboembolic events, Grade 3 or greater [4, 10]: 4% | Adverse reactions led to dose reductions or interruption, patients [4, 11]: 54% | Arthralgia/myalgia, All Grades [4, 11]: 32% | Arthralgia/myalgia, Grades 3-4 [4, 11]: 0% | Confusional state, All Grades [4, 11]: 0% | Confusional state, Grades 3-4 [4, 11]: 0% | Constipation, All Grades [4, 11]: 18% | Constipation, Grades 3-4 [4, 11]: 0% | Cough, All Grades [4, 11]: 30% | Cough, Grades 3-4 [4, 11]: 0% | Decreased appetite, All Grades [4, 11]: 18% | Decreased appetite, Grades 3-4 [4, 11]: 0% | Decreased weight, All Grades [4, 11]: 8% | Decreased weight, Grades 3-4 [4, 11]: 0% | Dehydration, All Grades [4, 11]: 2% | Dehydration, Grades 3-4 [4, 11]: 0% | Diarrhea, All Grades [4, 11]: 34% | Diarrhea, Grades 3-4 [4, 11]: 2% | Discontinuation of treatment due to hemorrhagic events, patients [4, 11]: no discontinuations | Dyspepsia, All Grades [4, 11]: 12% | Dyspepsia, Grades 3-4 [4, 11]: 0% | Dysphonia, All Grades [4, 11]: 4% | Dysphonia, Grades 3-4 [4, 11]: 0% | Dyspnea, All Grades [4, 11]: 28% | Dyspnea, Grades 3-4 [4, 11]: 8% | Epistaxis, All Grades [4, 11]: 24% | Epistaxis, Grades 3-4 [4, 11]: 0% | Events of renal impairment [4, 11]: 12% | Fatigue, All Grades [4, 11]: 38% | Gastrointestinal disorders and Abdominal pain, All Grades [4, 11]: 8% | Gastrointestinal disorders and Abdominal pain, Grades 3-4 [4, 11]: 0% | Grade 3 or greater diarrhea, patients [4, 11]: 2% | Grade 3 or greater renal failure or impairment, incidence [4, 11]: 2% | Headache, Grades 3-4 [4, 11]: 2% | Hypertension, All Grades [4, 11]: 10% | Hypertension, Grades 3-4 [4, 11]: 2% | Insomnia, All Grades [4, 11]: 2% | Insomnia, Grades 3-4 [4, 11]: 0% | Musculoskeletal chest pain, All Grades [4, 11]: 4% | Musculoskeletal chest pain, Grades 3-4 [4, 11]: 0% | Nausea, All Grades [4, 11]: 16% | Nausea, Grades 3-4 [4, 11]: 0% | Oral inflammation, All Grades [4, 11]: 50% | Oral inflammation, Grades 3-4 [4, 11]: 4% | Oral pain, All Grades [4, 11]: 4% | Oral pain, Grades 3-4 [4, 11]: 0% | Proteinuria, All Grades [4, 11]: 14% | Proteinuria, Grades 3-4 (text: Grade 3 or greater) [4, 11]: 2% | Pruritus, All Grades [4, 11]: 14% | Pruritus, Grades 3-4 [4, 11]: 0% | Pyrexia, All Grades [4, 11]: 10% | QT/QTc interval prolongation, patients [4, 11]: No reports | Rash, All Grades [4, 11]: 30% | Rash, Grades 3-4 [4, 11]: 0% | Renal failure events, All Grades [4, 11]: 2% | Renal failure events, Grades 3-4 [4, 11]: 2% | Vomiting, Grades 3-4 [4, 11]: 0% | arterial thromboembolic events, patients [4, 11]: 6% | decreased ejection fraction and cardiac failure, Grade 3 [4, 11]: 2% | decreased ejection fraction and cardiac failure, patients [4, 11]: 4% | epistaxis, Grade 1 [4, 11]: 20% | gastrointestinal perforation or fistula, patients [4, 11]: no patients | hemorrhagic events, Grade 3 or greater [4, 11]: 2% | hemorrhagic events, patients [4, 11]: 28% | hypothyroidism, patients [4, 11]: 2% | patients discontinued treatment for adverse reactions [4, 11]: 6 (12%) n (%) | elevation of TSH level post baseline in patients with a normal TSH at baseline ([4]; combo 18 mg+5 mg, everolimus 10 mg): none | epistaxis, Grade 2 ([4]; everolimus 10 mg): 4%

COc1cc2nccc(Oc3ccc(NC(=O)NC4CC4)c(Cl)c3)c2cc1C(N)=O [LENVIMA ®, 4-[3-chloro-4-(N′-cyclopropylureido)phenoxy]-7-methoxyquinoline-6-carboxamide methanesulfonate]
solubility in ethanol (dehydrated) ([5]; ethanol (dehydrated)): practically insoluble | solubility in water ([5]; water): slightly soluble | Duration of response, months, median (95% CI) ([2]; everolimus 10 mg): 7.5 (3.8, NE) months | Number of complete responses (%) ([2]; everolimus 10 mg): 0 n (%) | Number of partial responses (%) ([2]; everolimus 10 mg): 14 (27) n (%) | Number of progressive disease (%) ([2]; everolimus 10 mg): 3 (6) n (%) | Number of stable disease (%) ([2]; everolimus 10 mg): 27 (52) n (%) | Median OS in months (95% CI), updated analysis [2, 8]: 19.1 (13.6, 26.2) months | Overall Survival (updated analysis): Number of deaths, n (%) [2, 8]: 34 (65) n (%) | Median OS in months (95% CI) [2, 9]: 18.4 (13.3, NE) months | Median PFS in months (95% CI) [2, 9]: 7.4 (5.6, 10.2) months | Overall Survival: Number of deaths (%) [2, 9]: 26 (50) n (%) | PFS compared with the everolimus arm (in words) ([2]; vs everolimus 10 mg): improvement | Alkaline phosphatase increased, Grades 3-4 [3]: 0% | Aspartate aminotransferase (AST) increased, Grades 3-4 [3]: 4% | Hemoglobin decreased, Grades 3-4 [3]: 4% | Hyperglycemia, Grades 3-4 [3]: 8% | Hyperkalemia, Grades 3-4 [3]: 2% | Hypokalemia, Grades 3-4 [3]: 8% | Hyponatremia, Grades 3-4 [3]: 6% | Hypophosphatemia, Grades 3-4 [3]: 4% | Lipase increased, Grades 3-4 [3]: 10% | Lymphocyte count decreased, Grades 3-4 [3]: 4% | Platelet count decreased, Grades 3-4 [3]: 2% | Hypocalcemia, Grades 3-4 ([3]; listed as LENVIMA®, methanesulfonate): no patients | arterial thromboembolic events, Grade 3 or greater [4, 10]: 8% | QT/QTc interval prolongation, Grade 3 or greater events [4, 12]: No Grade 3 or greater events | fatal hemorrhage cases [4, 12]: one case of fatal intracranial hemorrhage | Arthralgia/myalgia, All Grades [4, 11]: 56% | Arthralgia/myalgia, Grades 3-4 [4, 11]: 4% | Confusional state, All Grades [4, 11]: 4% | Confusional state, Grades 3-4 [4, 11]: 2% | Cough, All Grades [4, 11]: 17% | Cough, Grades 3-4 [4, 11]: 2% | Decreased appetite, All Grades [4, 11]: 58% | Decreased appetite, Grades 3-4 [4, 11]: 4% | Decreased weight, All Grades [4, 11]: 50% | Decreased weight, Grades 3-4 [4, 11]: 6% | Dehydration, All Grades [4, 11]: 2% | Dehydration, Grades 3-4 [4, 11]: 0% | Dysphonia, All Grades [4, 11]: 37% | Dysphonia, Grades 3-4 [4, 11]: 0% | Dyspnea, All Grades [4, 11]: 25% | Dyspnea, Grades 3-4 [4, 11]: 2% | Epistaxis, All Grades [4, 11]: 8% | Epistaxis, Grades 3-4 [4, 11]: 0% | Fatigue, All Grades [4, 11]: 52% | Headache, Grades 3-4 [4, 11]: 6% | Insomnia, All Grades [4, 11]: 15% | Insomnia, Grades 3-4 [4, 11]: 0% | Musculoskeletal chest pain, All Grades [4, 11]: 15% | Musculoskeletal chest pain, Grades 3-4 [4, 11]: 4% | Pruritus, All Grades [4, 11]: 6% | Pruritus, Grades 3-4 [4, 11]: 0% | Pyrexia, All Grades [4, 11]: 10% | QT/QTc interval prolongation, patients [4, 11]: 6% | Rash, All Grades [4, 11]: 15% | Rash, Grades 3-4 [4, 11]: 0% | Renal failure events, All Grades [4, 11]: 10% | Renal failure events, Grades 3-4 [4, 11]: 6% | Vomiting, Grades 3-4 [4, 11]: 4%

COc1cc2nccc(Oc3ccc(NC(=O)NC4CC4)c(Cl)c3)c2cc1C(N)=O [lenvatinib, 4-(3-chloro-4(cyclopropylaminocarbonyl)aminophenoxy)-7-methoxy-6-quinolinecarboxamide]
embryofetal toxicity findings [6]: embryotoxicity, fetotoxicity, and teratogenicity | embryofetal toxicity findings [7]: embryotoxicity, fetotoxicity, and teratogenicity

Reference: patent publication US20200375975A1, “Treatment of Renal Cell Carcinoma with Lenvatinib and Everolimus” (Eisai R&D Management Co., Ltd., priority 2016, published 2020)
